This assay concerns microorganisms in the process water. Nature of the assay: Microbial count reduction in paper mill process water (3 h contact at 37° C., TGE agar plate count); synergism by the Kull method. The assay is classed as cell-based. The conditions noted are these: for Colony forming units per milliliter of sample (CFU/ml) after overnight incubation / Logarithmic Growth Reduction relative to the Control Experiment [log (CFU/ml of control plate) − log (CFU/ml of experimental plate)]: process water pH 7.0, 3 hours at 37° C.; for concentration alone required to yield a thousand fold reduction in the microorganism count of the process water (Qa, Qb): substance alone. Here is the method:
Samples of process water having a pH of 7.0 obtained from a paper mill were supplemented with Lonzabac® 12.100 and Barquat® MB-80 at the concentrations indicated in Table 1 below. Barquat® MB-80 is an 80% aqueous solution of N-(C12-C16 alkyl)-N-benzyl-N,N-dimethylammonium chloride available from Lonza Inc. of Fair Lawn, N.J. Lonzabac® 12.100 is a 100% N,N-bis(3-aminopropyl)-dodecylamine liquid available from Lonza Inc. The samples were immediately mixed and incubated for 3 hours at 37° C. with agitation in an orbital shaker. After 3 hours, tryptone glucose extract (TGE) agar plates were inoculated with each sample and grown overnight at 37° C. The number of colonies on each plate was then counted.
This experiment was repeated with a sample of process water that was not treated with Lonzabac® 12.100 or Barquat® MB-80 as a control.
Synergism for the solutions in Table 1 against the microorganisms in the process water was calculated by the methods described in C. E. Kull et al., “Mixtures of Quaternary Ammonium Compounds and Long-chain Fatty Acids as Antifungal Agents”, Applied Microbiology, 9:538-541 (1961). The synergism value (QA/Qa+QB/Qb) was determined. QA is the concentration of Lonzabac® 12.100 (in ppm) in a Lonzabac® 12.100/Barquat® MB-80 mixture, which yielded a thousand fold reduction in the microorganism count of the process water. Qa is the concentration of Lonzabac® 12.100 alone (in ppm) required to yield a thousand fold reduction in the microorganism count of the process water. QB is the concentration of Barquat® MB-80 (in ppm) in a Lonzabac® 12.100/Barquat® MB-80 mixture, which yielded a thousand fold reduction in the microorganism count of the process water. Qb is the concentration of Barquat® MB-80 alone (in ppm) required to yield a thousand fold reduction in the microorganism count of the process water.
The procedure in Example 1 was repeated substituting peracetic acid for Barquat® MB-80 with the solutions in Table 2 below.

This is an account of results in patent publication US20030228373A1, “Composition including a triamine and a biocide and a method for inhibiting the growth of microorganisms with the same” (Lonza Inc., priority 2002, published 2003).

As to `CCCCCCCCCCCCN(CCCN)CCCN` [Lonzabac ® 12.100, N,N-bis(3-aminopropyl)-dodecylamine], the “concentration alone required to yield a thousand fold reduction in the microorganism count of the process water (Qa, Qb)” value is given as 60 ppm. For the same molecule, for the setting “Lonzabac 12.100 15 ppm alone”, the “Colony forming units per milliliter of sample (CFU/ml) after overnight incubation” value (“Colony forming units per milliliter” for short) was 6.55 × 10^7 CFU/ml and the “Logarithmic Growth Reduction relative to the Control Experiment [log (CFU/ml of control plate) − log (CFU/ml of experimental plate)]” value was 0.7. Further, for the setting “Lonzabac 12.100 30 ppm alone”, the “Colony forming units per milliliter” value is 6.40 × 10^6 CFU/ml and the “Logarithmic Growth Reduction relative to the Control Experiment [log (CFU/ml of control plate) − log (CFU/ml of experimental plate)]” value was determined as 1.7. Under “Lonzabac 12.100 60 ppm alone”, the “Colony forming units per milliliter” value is reported as 3.25 × 10^5 CFU/ml and the “Logarithmic Growth Reduction relative to the Control Experiment [log (CFU/ml of control plate) − log (CFU/ml of experimental plate)]” value is given as 3.0. For the same molecule, under “Lonzabac 12.100 90 ppm alone”, the “Colony forming units per milliliter” value was 1.00 × 10^5 CFU/ml and the “Logarithmic Growth Reduction relative to the Control Experiment [log (CFU/ml of control plate) − log (CFU/ml of experimental plate)]” value was 3.5.

On to `CC(=O)OO` [Peracetic Acid, peracetic acid, reference compound], for which the “concentration alone required to yield a thousand fold reduction in the microorganism count of the process water (Qa, Qb)” value turned out to be 50 ppm. Also, for the setting “Peracetic Acid 20 ppm alone”, the “Colony forming units per milliliter” value is 1.43 × 10^7 CFU/ml and the “Logarithmic Growth Reduction relative to the Control Experiment [log (CFU/ml of control plate) − log (CFU/ml of experimental plate)]” value is reported as 1.3. Further, under “Peracetic Acid 50 ppm alone”, the “Colony forming units per milliliter” value is 1.00 × 10^5 CFU/ml and the “Logarithmic Growth Reduction relative to the Control Experiment [log (CFU/ml of control plate) − log (CFU/ml of experimental plate)]” value worked out at 3.2.
